Results on three compounds are retold here after patent US20180369241A1, “TREATMENT OF CANCER WITH DNAPK INHIBITORS” (Celgene Corporation, priority 2015, published 2018).

For one data set, the system named is PC3 xenograft tumors. The experiment in a line: PC3 xenograft tumor growth. In kind it is in vivo. The source says: (§1) FIG. 10 provides: Body weight measurements of LNCaP-AR xenograft mice after treatment with NU7441 (panel A); Growth curves of VCaP xenograft tumors with various doses of Compound 1 (administered once daily via oral gavage, 5 times per week for 6 weeks) or vehicle (panel B); Body weight measurements of VCaP xenograft mice after treatment with various Compound 1 doses (panel C); and Growth curves of PC3 xenograft tumors treated with Compound 1 or vehicle (panel D). All graphs are mean±S.E.M. *=p<0.05 compared to vehicle.

For another data set, the system named is LNCaP-AR-MDVR cells. The experiment in a line: Invasion and migration of enzalutamide-resistant LNCaP-AR cells, crystal violet quantification. In kind it is cell-based. The source says:
(§2) FIG. 4 provides: Expression of Wnt pathway genes after DNAPK knockdown (panel A) or inhibition (NU7441) (panel B) in LNCaP-AR cells; Immunoblot analyses of DNAPK, phospho-DNAPK (pDNAPK), active beta catenin (βcatenin), and cMyc levels in LNCaP-AR and C4-2 cells after DNAPK knockdown (siDNAPK) or inhibition (NU7441) with or without Wnt3A stimulation (panels C-D); Representative images (200×) and crystal violet quantification of LNCaP-AR and C4-2 cell invasion and migration after DNAPK inhibition (NU7441 or Compound 1) with or without Wnt3A stimulation (panel E); and Representative images (200×) and crystal violet quantification of enzalutamide-resistant LNCaP-AR (LNCaP-AR-enza-res) cell invasion and migration after DNAPK inhibition (NU7441 or Compound 1) or continued enzalutamide treatment (Enza) (panel F). All graphs are mean±S.D. *=p<0.05 compared to respective controls. Enza=enzalutamide. Enza-res=enzalutamide resistant. RQ=relative quantity. siNTC=non-targeting siRNA control.
FIG. 9 provides: Expression of Wnt pathway target genes in LNCaP-AR cells grown in enzalutamide until resistance (LNCaP-AR-enza-res) relative to LNCaP-AR cells grown in vehicle (DMSO) (panel A); and Expression of AR or AR-target genes FKBP5 and KLK3 (PSA) in LNCaP-AR-enza-res cells after treatment with 10 μM enzalutamide (panel B). GAPDH was used as internal reference, bars are mean±S.D. *=p<0.05. RQ=relative quantity.

The subject of the next data set is VCaP xenograft tumors. In kind it is in vivo, mice.
Description: as §1

The test system of data set [1] is C4-2 cells. Put plainly: Boyden chamber migration and invasion assay, crystal violet quantification. It is filed as cell-based.
Description: (§3) FIG. 2 provides: Representative images (200×) and crystal violet quantification of migration (panel A) and invasion (panel B) of C4-2, LNCaP-AR and PC3 cells in Boyden chamber assays after DNAPK knockdown (siRNA) or inhibition (NU7441); C4-2, LNCaP-AR and PC3 cell growth curves after DNAPK inhibition (NU7441) (panel C) or knockdown (siRNA) (panel D); and DNAPK knockdown by siRNA relative to non-targeting (siNTC) control (panel E). *p<0.05, […] compared to respective controls. All graphs are mean±S.D.
as §2

In data set [2] the test system is LNCaP-AR cells. The data set is described as above. It is filed as cell-based.
Description: as §3, §2

The test system of another data set is LNCaP-AR xenografts. In kind it is in vivo. To be noted: for median tumor tripling time: enzalutamide 10 mg/kg, Compound 1 2 mg/kg, vehicle 15 days. How it is done: (§4) FIG. 6 provides: Growth curves of LNCaP-AR xenografts in castrated mice treated daily with vehicle (black, n=5) or 25 mg/kg NU7441 (gray, n=6) (panel A); Fold change in final tumor volume (panel B); Kaplan-Meier curves of freedom from tumor doubling time with vehicle or NU7441 (25 mg/kg) treatment of LNCaP-AR xenograft tumors (panel C); Growth curves of LNCaP-AR xenograft tumors with 5 times weekly oral gavage enzalutamide (10 mg/kg, n=16), Compound 1 (2 mg/kg, n=14), Compound 1+enzalutamide (n=14), or vehicle (n=14) treatment. Bar graph represents change in final tumor volume compared to starting tumor volume (panel D); Kaplan-Meier curves of freedom from tumor tripling with enzalutamide, Compound 1, enzalutamide+Compound 1, or vehicle treatment of LNCaP-AR xenograft tumors (panel E); Expression of select Wnt pathway target genes in human primary prostate tumor explants treated with NU7441 (n=6) or vehicle (panel F); and Representative images of Ki67 immunostaining of human primary prostate tumor explants treated with NU7441 (n=6) or vehicle; Ki67-positive nuclei are indicated with arrows (panel G). All graphs are mean±S.E.M. *=p<0.05 compared to respective control, #=p<0.05 for enzalutamide compared to Compound 1+enzalutamide, **=p<0.01 for Compound 1 compared to vehicle.
as §1

The test system of data set [3] is TOPFLASH reporter in PC3 cells. The experiment in a line: TOPFLASH luciferase reporter activity. In kind it is cell-based. To be noted: baseline and Wnt3A-induced, normalized to renilla luciferase. The source says:
FIG. 5 provides: Immunoblot analyses of DNAPK, KU70 and LEF1 after DNAPK immunoprecipitation (left), and LEF1 and DNAPK after LEF1 immunoprecipitation (right) in LNCaP-AR cells (panel A); TOPFLASH luciferase reporter activity in PC3 cells after DNAPK inhibition (NU7441) and/or Wnt3A stimulation; activity is normalized to renilla luciferase (panel B); and Representative images (200×) and crystal violet quantification of LNCaP-AR and C4-2 cell invasion and migration after DNAPK, LEF1 or beta catenin (CTNNB1) knockdown by siRNA. *=p<0.05 compared to respective controls, #=p<0.05 compared to Wnt3A (panel C). All graphs are mean±S.D. siNTC=non targeting siRNA control.
In general terms: A reporter such as luciferase makes a cellular process visible.

In data set [4] the test system is Wnt pathway genes in LNCaP-AR cells. The experiment in a line: Expression of Wnt pathway genes after DNAPK inhibition. In kind it is cell-based.
Description: as §2

Data set [5] relates to active beta-catenin and cMyc in C4-2 cells. The experiment in a line: Immunoblot of active beta catenin and cMyc with or without Wnt3A stimulation. In kind it is cell-based. To be noted: baseline and Wnt3A-induced.
Description: as §2

The test system of data set [6] is active beta-catenin and cMyc in LNCaP-AR cells. Described as above. To be noted: baseline and Wnt3A-induced. In kind it is cell-based.
Description: as §2

Data set [7] concerns PC3 cells. Put plainly: Boyden chamber migration and invasion assay, crystal violet quantification. To be noted: PC3 cells (AR-negative). In kind it is cell-based.
Description: as §3

Data set [8] relates to Wnt pathway genes in C4-2 cells. Put plainly: Expression of Wnt pathway genes after DNAPK inhibition. In kind it is cell-based. The source says: FIG. 8 provides: Expression of Wnt pathway genes in C4-2 cells after inhibition (NU7441) (panel A) or knockdown (panel B) of DNAPK; and Expression of Notch pathway genes in LNCaP-AR, PC3 and C4-2 cells after knockdown of DNAPK (panel C). GAPDH was used as internal reference, bars are mean±S.D. *=p<0.05. RQ=relative quantity.

The test system of data set [9] is PC3 cells. The experiment in a line: Cell growth curves after DNAPK inhibition. It is filed as cell-based.
Description: as §3

Data set [10] deals with C4-2 cells. Put plainly: Cell growth curves after DNAPK inhibition. It is filed as cell-based.
Description: as §3

In data set [11] the test system is LNCaP-AR cells. The experiment in a line: Cell growth curves after DNAPK inhibition. In kind it is cell-based.
Description: as §3

Data set [12] deals with human primary prostate tumor explants. Put plainly: Human primary prostate tumor explants. Conditions: human prostate cancer explants. The method, then:
as §4

Where [13] appears, read: C4-2 (CRPC) cells, baseline and Wnt3A-induced.
[14] abbreviates: LNCaP-AR (CRPC) cells, baseline and Wnt3A-induced.

For the compound `CCN1C(=O)CNc2ncc(-c3ccc(-c4nc[nH]n4)nc3C)nc21` [Compound 1, 1-ethyl-7-(2-methyl-6-(1H-1,2,4-triazol-3-yl)pyridin-3-yl)-3,4-dihydropyrazino[2,3-b]pyrazin-2(1H)-one], in the data set with PC3 xenograft tumors, the “regression of AR-independent PC3 tumors” value is on record as “significant regression”. For the same compound, the invasion entry in the data set with LNCaP-AR-MDVR cells is recorded as “significantly reduced”; with C4-2 cells [1] (setting [13]), “abrogated”; in the data set with LNCaP-AR cells [2] (setting [14]), “abrogated”. Moreover, the values for the migration result with LNCaP-AR-MDVR cells, in the data set with C4-2 cells [1] (setting [13]) and in the data set on LNCaP-AR cells [2] (setting [14]) were “significantly reduced”, “abrogated” and “abrogated”, respectively. Further, the “toxicity (body weight)” value in the data set on VCaP xenograft tumors (mouse, in vivo, 2 mg/kg) is recorded as “non-toxic”. Further, in the data set with VCaP xenograft tumors (various doses, once daily oral gavage, 5 times per week for 6 weeks, best observed at 2 mg/kg), the tumor growth entry is “dose-dependent reduction”. Also, the “median tumor tripling time” value in the data set on LNCaP-AR xenografts (5 times weekly oral gavage) is 29.5 days. Moreover, in the data set on LNCaP-AR xenografts (pre-castrated conditions, 2 mg/kg, 5 times weekly oral gavage, comparator enzalutamide 10 mg/kg), the tumor regression result is “significantly better tumor regression compared to enzalutamide”.
As for `O=c1cc(N2CCOCC2)oc2c(-c3cccc4c3sc3ccccc34)cccc12` [NU7441], the invasion entry in the data set with LNCaP-AR-MDVR cells was “significantly reduced”; in the data set on PC3 cells [7], “drastically diminished”; in the data set with C4-2 cells [1] (setting [13]) it was “abrogated”; with C4-2 cells [1] (C4-2 cells (AR-positive)), “drastically diminished”; with LNCaP-AR cells [2] (setting [14]) it was “abrogated”; with LNCaP-AR cells [2] (LNCaP-AR cells (AR-positive)), “drastically diminished”. The migration entry in the data set on LNCaP-AR-MDVR cells is reported as “significantly reduced”; in the data set with PC3 cells [7] it was “drastically diminished”; in the data set with C4-2 cells [1] (setting [13]) it was “abrogated”; in the data set on C4-2 cells [1] (C4-2 cells (AR-positive)) it was “drastically diminished”; in the data set on LNCaP-AR cells [2] (setting [14]), “abrogated”; in the data set on LNCaP-AR cells [2] (LNCaP-AR cells (AR-positive)) it was “drastically diminished”. The TOPFLASH reporter activity entry in [3] is “significantly reduced”. The “Wnt pathway genes expression” value in data set [4] and in data set [8] was “robust reduction” in each case. Moreover, the “levels of active beta-catenin” value in data set [5] and in data set [6] was “reduced” throughout. In addition, the “levels of cMyc” value in data set [5] and in data set [6] was “reduced” each time. For the same compound, in the data set with LNCaP-AR xenografts (castrated mice, 25 mg/kg daily), the “reduction in tumor growth compared to control” value is 44%. Further, in the data set on LNCaP-AR xenografts (castrated mice, 25 mg/kg daily, fold change in final tumor volume, vehicle 8.57±1.45), the relative tumor volume was 4.84±1.97. The “median tumor doubling time” value in the data set with LNCaP-AR xenografts (castrated mice, 25 mg/kg daily, vehicle 7 days) came out at 21.5 days. Further, the “toxicity as measured by body weight” value in the data set on LNCaP-AR xenografts (mouse, in vivo) is given as “minimal”. In addition, the proliferation result with PC3 cells [9], in the data set on C4-2 cells [10] and in the data set on LNCaP-AR cells [11] was “drastically diminished” each time. Also, the “Wnt target gene expression” value in [12] is “marked reduction”. Also, the “proliferative index, as determined by Ki67 levels” value in [12] is “marked reduction”.
Consider `CNC(=O)c1ccc(N2C(=S)N(c3ccc(C#N)c(C(F)(F)F)c3)C(=O)C2(C)C)cc1F` [enzalutamide], for which, in the data set on LNCaP-AR xenografts (5 times weekly oral gavage), the “median tumor tripling time” value is recorded as 23.5 days.
